# In patent US20100292185A1, “BETA-LACTAMASE INHIBITORS” (priority 2009, published 2010):
# Structures can show the parent of a compound that is named as a salt. Where two headings read alike, the source gives them in different places.
# Key:
# p99 AmpC β-lactamase = target: T1, p99 AmpC β-lactamase (Enterobacter cloacae, UniProt P05364); experiment: β-lactamase enzyme inhibition assay (nitrocefin substrate), P99 AmpC; type: biochemical
# T1 construct: expressed as native untagged proteins; made in house; host or cells: E. coli BL21(DE3)
# Summary of the method: (§1)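 Read-out: kinetic A486 over 10 min after adding nitrocefin at 100 μM final. Before substrate addition, enzyme and inhibitor (100–0.005 μM, PBS pH 7.0) sat together for 10 min at 37 °C. IC50 is the concentration halving the initial hydrolysis rate versus no-inhibitor wells.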
# [1] = tested on: E. coli expressing the Class A ESBL SHV-5; experiment: In vitro antibacterial assay of β-lactamase inhibition (broth microdilution MIC), E. coli SHV-5; type: cell-based; details: in presence of Ceftazidime 8 μg/ml (Examples 1-56)
# Summary of the method: (§2)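 Broth microdilution in cation-adjusted Mueller Hinton broth; strains pre-grown 3–5 h with 50 μg/mL ampicillin. Test compounds 2-fold serially diluted to a final 8–0.015 μg/mL alongside a β-lactam, CLSI inoculum. MIC read visually after 16–20 h at 37° C.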
# [2] = tested on: P. aeruginosa expressing the Class B metallo β-lactamase VIM-2; experiment: In vitro antibacterial assay of β-lactamase inhibition (broth microdilution MIC), P. aeruginosa VIM-2; type: cell-based; details: in presence of Ceftazidime 16 μg/mL (Examples 1-56)
# Summary of the method: as §2
# OXA-23 β-lactamase = target: T2, OXA-23 β-lactamase (Acinetobacter baumannii, UniProt Q9L4P2); experiment: β-lactamase enzyme inhibition assay (nitrocefin substrate), OXA-23 crude extract; type: biochemical
# T2 construct: crude β-lactamase extracts were prepared from 20 ml overnight cultures; endogenous in cells; host or cells: Acinetobacter baumannii cells containing OXA-23 (crude freeze-thaw extract)
# Method: For OXA-23 β-lactamase, crude β-lactamase extracts were prepared from 20 ml overnight cultures with shaking. Acenitobacter baumanni cells containing OXA-23 were further diluted 10-fold and grown to mid-log phase (OD at 600 nm, 0.5-0.8) in Mueller-Hinton II (MH-II) broth at 37° C. The cells were pelleted at 5000 g, washed and resuspended in 2 mL PBS pH 7.0. The β-lactamases were extracted by four cycles of freezing and thawing followed by centrifugation. β-lactamase activity in the extracts was measured with the chromogenic cephalosporin nitrocefin. The amount of protein in each β-lactamase preparation was determined by the bicinchoninic acid (BCA) assay.
# (§3) β-lactamase Inhibition. To determine the level of inhibition of β-lactamase enzymes, compounds were diluted in PBS at pH 7.0 to yield concentrations between 100 and 0.005 μM in microtiter plates. An equal volume of diluted enzyme stock was added, and the plates were incubated at 37° C. for 10 min. Nitrocefin solution was then dispensed as substrate into each well at a final concentration of 100 μM, and the plates were immediately read with the kinetic program at 486 nm for 10 min on the SPECTRAMAX® Plus^384 (high-throughput microplate spectrophotometer; Molecular Devices Corp., Sunnyvale, Calif.). Maximum rates of metabolism were then compared to those in control wells (without inhibitors), and percentages of enzyme inhibition were calculated for each concentration of inhibitor. The concentration of inhibitor needed to reduce the initial rate of hydrolysis of substrate by 50% (IC50) was calculated as the residual activity of β-lactamase at 486 nm using the SoftMax Pro 5.0 software (Molecular Devices Corp.).
# [3] = tested on: K. pneumoniae expressing the Class A Extended Spectrum Beta-Lactamase (ESBL) CTX-M-15; experiment: In vitro antibacterial assay of β-lactamase inhibition (broth microdilution MIC), K. pneumoniae CTX-M-15; type: cell-based; details: in presence of Ceftazidime 8 μg/ml (Examples 1-56)
# Summary of the method: as §2
# KPC-2 β-lactamase = target: T3, KPC-2 β-lactamase (Klebsiella pneumoniae, UniProt Q9F663); experiment: β-lactamase enzyme inhibition assay (nitrocefin substrate), KPC-2; type: biochemical
# T3 construct: expressed as native untagged proteins; made in house; host or cells: E. coli BL21(DE3)
# Summary of the method: as §1
# CTX-M15 β-lactamase = target: T4, CTX-M15 β-lactamase (Escherichia coli, UniProt Q9EXV5); experiment: β-lactamase enzyme inhibition assay (nitrocefin substrate), CTXM-15; type: biochemical
# T4 construct: expressed as native untagged proteins; made in house; host or cells: E. coli BL21(DE3)
# Summary of the method: as §1
# [4] = tested on: K. pneumoniae expressing the Class A carbapenemase KPC-2; experiment: microbe, parasite or virus in culture; type: cell-based; details: in presence of Ceftazidime 8 μg/ml (Examples 1-56)
# Summary of the method: as §2
# [5] = target: T5, VIM-2 metallo β-lactamase (Pseudomonas aeruginosa, UniProt Q9K2N0); experiment: β-lactamase enzyme inhibition assay (nitrocefin substrate), VIM-2; type: biochemical
# T5 construct: made in house
# Method: Isolation of β-lactamases. For SHV-5, p99 AmpC, KPC-2 and CTX-M15 β-lactamases, E. coli BL21(DE3) bacterial cells carrying expression plasmids (expressed as native untagged proteins) for the individual β-lactamases were grown in 1 L of Superbroth (Teknova Inc. Hollister, Calif.) supplemented with 100 μg/ml kanamycin and 1×5052 (0.5% glycerol, 0.05% glucose and 0.2% α-lactose) at 35° C. for 18-20 hours. Cells were harvested by centrifugation (4,000×g, 4° C., 20 min), and resuspended in 50 ml of 10 mM HEPES pH 7.5 (1/20 of the initial volume). The cells were lysed by sonication (5 pulses of 45 seconds) at 45 W on ice. The lysates were clarified by centrifugation at 10,000×g for 40 minutes at 4° C. Samples were diluted 5-fold in 50 mM sodium acetate pH 5.0, stored overnight at 4° C., after which they were centrifuged at 10,000×g for 30 minutes to clarify, and filtered through 0.45 μm filters. The samples were loaded onto a 5 ml Capto S sepharose cation exchange column (GE Healthcare) pre-equilibrated with 50 mM sodium acetate pH 5.0. The column was washed with 5 column volumes of 50 mM sodium acetate pH 5.0 to wash out unbound protein and a linear gradient of NaCl (0 to 500 mM) was used to elute the protein (over 16 CV) from the column. Fractions were assayed for β-lactamase activity using Centa (Calbiochem, Gibbstown, N.J.) as a reporter β-lactamase substrate for activity in the isolated fractions. Active fractions were pooled, concentrated and further purified by gel filtration chromatography on a Superdex 75 prep grade gel filtration column (GE Healthcare, Piscataway, N.J.) pre-equilibrated in 50 mM Hepes pH 7.5, 150 mM NaCl. Active fractions were pooled concentrated, quantitated by BCA protein determination (Thermo Scientific, Rockford, Ill.), and frozen at −80° C. in 20% glycerol until use.
# For VIM-2 metallo (β-lactamase, the procedure was identical with the following exceptions: 1) the protein was not pH adjusted to pH 5 with 50 mM sodium acetate, 2) the chromatography step was changed to a 5 ml Q sepharose anion exchange column pre-equilibrated with 50 mM Hepes pH 7.5, and 3) elution of the protein was achieved by a linear gradient of NaCl (0-600 mM). Finally, the VIM-2 purification required a second run (3rd step) on the Q sepharose anion exchange column to achieve acceptable purity (>90%).
# as §3
# Using the methodology described above, examples of the current invention were evaluated for their ability to inhibit β-lactamase enzymes. The results of these assays are summarized in Table 2 for representative enzymes across different subtypes (note SHV-5 and CTXM-15 exemplify different subclasses of Ambler Class A Extended Spectrum Beta Lactamases, KPC-2 exemplifies Class A carbapenemases, P99 represents chromosomal Class C AmpC, VIM-2 exemplifies subclass B1 of metallo-β-lactamases, and OXA-23 represents chromosome-encoded Class D oxacillin-hydrolyzing β-lactamases), NT=not tested.
# [6] = tested on: E. cloacae expressing the Class C P99+; experiment: In vitro antibacterial assay of β-lactamase inhibition (broth microdilution MIC), E. cloacae P99+; type: cell-based; details: in presence of Ceftazidime 8 μg/ml (Examples 1-56)
# Summary of the method: as §2
# SHV-5 β-lactamase = target: T6, SHV-5 β-lactamase (Klebsiella pneumoniae, UniProt P0A3M1); experiment: β-lactamase enzyme inhibition assay (nitrocefin substrate), SHV-5; type: biochemical
# T6 construct: expressed as native untagged proteins; made in house; host or cells: E. coli BL21(DE3)
# Summary of the method: as §1
# [7] = nitrocefin 100 μM, 37° C., PBS pH 7.0, read-out: P99 AmpC IC50
# [8] = nitrocefin 100 μM, 37° C., PBS pH 7.0, read-out: OXA-23 IC50
# [9] = nitrocefin 100 μM, 37° C., PBS pH 7.0, read-out: VIM-2 IC50
# T6 sequence (P0A3M1 22-286): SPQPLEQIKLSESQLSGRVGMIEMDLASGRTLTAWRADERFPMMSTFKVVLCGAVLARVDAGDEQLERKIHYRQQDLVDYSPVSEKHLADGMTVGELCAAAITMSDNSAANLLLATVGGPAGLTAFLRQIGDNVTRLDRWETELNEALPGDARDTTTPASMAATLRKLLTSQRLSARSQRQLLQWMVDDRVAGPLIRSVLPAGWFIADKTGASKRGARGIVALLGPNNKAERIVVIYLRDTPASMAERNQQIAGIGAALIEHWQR
# T3 sequence (Q9F663 25-293 limits assumed): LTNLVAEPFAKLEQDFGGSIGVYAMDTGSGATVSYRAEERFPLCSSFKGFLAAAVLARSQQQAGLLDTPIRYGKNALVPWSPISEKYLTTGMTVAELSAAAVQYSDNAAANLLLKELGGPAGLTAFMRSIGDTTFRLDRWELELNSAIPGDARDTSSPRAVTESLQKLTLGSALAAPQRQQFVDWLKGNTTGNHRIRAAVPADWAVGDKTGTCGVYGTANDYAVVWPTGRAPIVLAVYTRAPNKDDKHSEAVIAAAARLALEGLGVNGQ
# T4 sequence (Q9EXV5 entry or part of it): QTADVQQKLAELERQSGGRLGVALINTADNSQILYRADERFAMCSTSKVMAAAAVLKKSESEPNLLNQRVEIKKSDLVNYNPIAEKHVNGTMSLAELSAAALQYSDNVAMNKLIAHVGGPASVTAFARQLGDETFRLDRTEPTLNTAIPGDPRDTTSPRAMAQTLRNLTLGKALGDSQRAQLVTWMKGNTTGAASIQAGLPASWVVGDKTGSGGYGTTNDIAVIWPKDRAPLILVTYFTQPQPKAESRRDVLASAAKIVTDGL
# T2 sequence (Q9L4P2 18-273): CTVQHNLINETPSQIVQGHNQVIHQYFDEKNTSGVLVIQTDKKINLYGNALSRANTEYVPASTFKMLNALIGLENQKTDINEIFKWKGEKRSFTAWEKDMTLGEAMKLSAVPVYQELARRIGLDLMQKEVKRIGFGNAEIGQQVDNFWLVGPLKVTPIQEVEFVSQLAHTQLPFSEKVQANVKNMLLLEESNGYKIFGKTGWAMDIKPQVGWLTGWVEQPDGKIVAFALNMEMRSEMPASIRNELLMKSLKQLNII
# T1 sequence (P05364 21-381): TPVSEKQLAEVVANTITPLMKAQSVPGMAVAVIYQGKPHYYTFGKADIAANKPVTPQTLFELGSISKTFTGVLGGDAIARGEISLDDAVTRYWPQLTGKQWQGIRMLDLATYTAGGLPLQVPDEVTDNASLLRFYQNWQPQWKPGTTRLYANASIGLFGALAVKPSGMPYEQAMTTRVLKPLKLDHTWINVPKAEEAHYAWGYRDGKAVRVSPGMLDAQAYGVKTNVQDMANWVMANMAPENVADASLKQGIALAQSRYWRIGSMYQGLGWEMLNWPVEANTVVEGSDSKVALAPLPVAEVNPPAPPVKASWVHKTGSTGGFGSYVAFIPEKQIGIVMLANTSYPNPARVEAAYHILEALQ
SMILES,IC50 (p99 AmpC β-lactamase; [7]) [µM],"MIC of example compound, E. coli SHV-5 [1] [mg/L]","MIC of example compound, P. aeruginosa VIM-2 [2] [mg/L]",IC50 (OXA-23 β-lactamase; [8]) [µM],"MIC of example compound, K. pneumoniae CTX-M-15 [3] [mg/L]",IC50 (KPC-2 β-lactamase) [µM],IC50 (CTX-M15 β-lactamase) [µM],"MIC of example compound, K. pneumoniae KPC-2 [4] [mg/L]","IC50 [5, 9] [µM]","MIC of example compound, E. cloacae P99+ [6] [mg/L]",IC50 (SHV-5 β-lactamase) [µM],IC50 (p99 AmpC β-lactamase) [µM],IC50 (OXA-23 β-lactamase) [µM],IC50 [5] [µM]
"O=C(N[C@@H](Cc1cccc(C(=O)O)c1O)B(O)O)c1ccc(CN2CCOCC2)cc1 [Example 3, 2(R)-3-[2-(4-(Morpholinomethyl)benzoylamino)-2-borono-ethyl]-2-hydroxy-benzoic acid formate]",0.003,8,>8,> 1,2,0.014,0.004,0.12,0.85,4,0.367,–,–,–
"CN(C)Cc1ccc(C(=O)N[C@@H](Cc2cccc(C(=O)O)c2O)B(O)O)cc1 [Example 4, 2(R)-3-[2-(4-(N,N-Dimethylaminomethyl)benzoylamino)-2-borono-ethyl]-2-hydroxy-benzoic acid formate salt]",0.003,1,>8,0.099,0.25,0.004,0.003,0.06,> 1,2,0.0006,–,–,–
"Cl.O=C(N[C@@H](Cc1cccc(C(=O)O)c1O)B(O)O)c1ccc(N2CCNCC2)nc1 [Example 9, (2R)-3-{2-[(2-(1-piperazinyl)-pyridine-5-carbonyl)-amino]-2-borono-ethyl}-2-hydroxy-benzoic acid hydrochloride]",0.002,4,>8,> 1,1,0.006,0.083,<0.01,0.242,0.25,> 1,–,–,–
"CC(=O)Nc1ccc(C(=O)N[C@@H](Cc2cccc(C(=O)O)c2O)B(O)O)cn1 [Example 10, (2R)-3-{2-[(2-(acetylamino)-pyridine-5-carbonyl)-amino]-2-borono-ethyl}-2-hydroxy-benzoic acid]",0.003,1,>8,0.58,0.25,0.004,0.003,0.01,0.68,0.5,0.319,–,–,–
"CNCc1ccc(C(=O)N[C@@H](Cc2cccc(C(=O)O)c2O)B(O)O)cc1.Cl [Example 11, (1R)-[4-(methylamino)methyl]-benzoylamino-(3-carboxy-2-hydroxy)benzyl-methyl boronic acid hydrochloride]",0.001,8,8,> 1,1,0.004,0.004,<0.01,0.057,0.25,> 1,–,–,–
"Cl.O=C(N[C@@H](Cc1cccc(C(=O)O)c1O)B(O)O)c1ccc(CN2CCCC(C(=O)O)C2)cc1 (stereo partly drawn) [Example 12, (1R)-[4-(piperidine-3-carboxylic acid)-methyl]-benzoylamino-(3-carboxy-2-hydroxy)benzyl-methyl boronic acid hydrochloride]",0.9,4,>8,> 1,1,0.011,0.003,0.03,0.93,2,0.87,–,–,–
"CC[N+](CC)(CC)Cc1ccc(C(=O)N[C@@H](Cc2cccc(C(=O)O)c2O)B(O)O)cc1 [Example 13, (1R)-(4-(triethylammonium)methyl)-benzoylamino-(3-carboxy-2-hydroxy)benzyl-methyl boronic acid bromide]",–,>8,>8,–,>8,0.003,0.014,0.25,–,>8,> 1,0.004,> 1,0.34
"O=C(N[C@@H](Cc1cccc(C(=O)O)c1O)B(O)O)c1ccc(C[n+]2ccccc2)cc1 [Example 14, (1R)-[4-(pyridinium)-methyl]-benzoylamino-(3-carboxy-2-hydroxy)benzyl-methyl boronic acid chloride]",–,>8,>8,–,>8,0.021,0.001,0.01,–,0.5,> 1,0.029,> 1,0.36
